Results: ChEMBL document CHEMBL4616632, “Discovery of Cyclic Boronic Acid QPX7728, an Ultrabroad-Spectrum Inhibitor of Serine and Metallo-β-lactamases” (J Med Chem, 2020)

Target: Class A carbapenemase KPC-2 (Escherichia coli, UniProt A8DS27)
Assay: Inhibition of recombinant Escherichia coli KPC-2 using nitrocefin as substrate preincubated for 10 mins followed by substrate addition and measured every 10 secs for 10 mins by spectrophotometric analysis

Class A carbapenemase KPC-2, sequence (A8DS27 whole entry): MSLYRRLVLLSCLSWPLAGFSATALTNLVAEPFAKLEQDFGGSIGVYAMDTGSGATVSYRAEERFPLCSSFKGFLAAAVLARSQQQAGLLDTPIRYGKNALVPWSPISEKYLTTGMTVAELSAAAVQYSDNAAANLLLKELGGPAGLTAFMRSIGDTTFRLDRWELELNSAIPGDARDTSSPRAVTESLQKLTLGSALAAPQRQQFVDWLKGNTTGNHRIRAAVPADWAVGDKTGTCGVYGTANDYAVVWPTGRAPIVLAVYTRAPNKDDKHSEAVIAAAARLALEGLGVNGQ

Ki	SMILES
21 nM	Nc1nnc(SCC(=O)N[C@H]2Cc3cccc(C(=O)O)c3OB2O)s1
150 nM	O=C(O)c1cccc2c1OB(O)[C@@H](Sc1nncs1)C2

Tested on: not listed separately
Assay: Inhibition of recombinant Escherichia coli OXA-48 using nitrocefin as substrate preincubated for 10 mins followed by substrate addition and measured every 10 secs for 10 mins by spectrophotometric analysis

SMILES	Ki
Nc1nnc(SCC(=O)N[C@H]2Cc3cccc(C(=O)O)c3OB2O)s1	0.5 nM
O=C(O)c1cccc2c1OB(O)[C@@H](Sc1nncs1)C2	1.4 nM

Tested on: not listed separately
Assay: Inhibition of recombinant Escherichia coli NDM-1 using imipenem as substrate preincubated for 10 mins followed by substrate addition and measured every 30 secs for 30 mins by spectrophotometric analysis

SMILES	Ki
Nc1nnc(SCC(=O)N[C@H]2Cc3cccc(C(=O)O)c3OB2O)s1	7400 nM
O=C(O)c1cccc2c1OB(O)[C@@H](Sc1nncs1)C2	24 nM

Tested on: Klebsiella pneumoniae
Assay: Inhibition of Klebsiella pneumoniae KP1009 CTX-M-15 assessed as minimum concentration of compound required to reduce the MIC of aztreonam to 4 ug/ml

MEC	SMILES
0.6 µg/mL	CSCC(=O)N[C@H]1Cc2ccc(SC)c(C(=O)O)c2OB1O
1.25 µg/mL	CSCC(=O)N[C@H]1Cc2ccc(OCCO)c(C(=O)O)c2OB1O
0.6 µg/mL	CSCC(=O)N[C@H]1Cc2ccc(SC3CNC3)c(C(=O)O)c2OB1O
2.5 µg/mL	CSCC(=O)N[C@H]1Cc2ccc(Sc3nncn3C)c(C(=O)O)c2OB1O
< 0.3 µg/mL	CSCC(=O)N[C@H]1Cc2ccc(F)c(C(=O)O)c2OB1O
> 20 µg/mL	O=C(O)c1cccc2c1OB(O)[C@@H](Sc1nncs1)C2

Tested on: Escherichia coli
Assay: Inhibition of Escherichia coli KP308 SHV-5 assessed as minimum concentration of compound required to reduce the MIC of aztreonam to 4 ug/ml

MEC	SMILES
2.5 µg/mL	O=C(O)c1cccc2c1OB(O)[C@@H](Sc1nncs1)C2

Tested on: Escherichia coli
Assay: Inhibition of Escherichia coli EC302 TEM-10 assessed as minimum concentration of compound needed to reduce the MIC of aztreonam to 4 ug/ml

MEC	SMILES
1.25 µg/mL	CSCC(=O)N[C@H]1Cc2ccc(SC)c(C(=O)O)c2OB1O
2.5 µg/mL	CSCC(=O)N[C@H]1Cc2ccc(OCCO)c(C(=O)O)c2OB1O
5 µg/mL	CSCC(=O)N[C@H]1Cc2ccc(SC3CNC3)c(C(=O)O)c2OB1O
2.5 µg/mL	CSCC(=O)N[C@H]1Cc2ccc(Sc3nncn3C)c(C(=O)O)c2OB1O
1.25 µg/mL	CSCC(=O)N[C@H]1Cc2ccc(F)c(C(=O)O)c2OB1O
20 µg/mL	O=C(O)c1cccc2c1OB(O)[C@@H](Sc1nncs1)C2

Target: Beta-lactamase (Klebsiella pneumoniae) (UniProt Q93LQ9)
Sequence (Q93LQ9 as listed by the source): as the sequence (A8DS27 whole entry) above
Assay: Inhibition of Klebsiella pneumoniae KP1004 KPC-2 assessed as minimum concentration of compound needed to reduce the MIC of aztreonam to 4 ug/ml

MEC	SMILES
0.6 µg/mL	CSCC(=O)N[C@H]1Cc2ccc(SC)c(C(=O)O)c2OB1O
1.25 µg/mL	CSCC(=O)N[C@H]1Cc2ccc(OCCO)c(C(=O)O)c2OB1O
1.25 µg/mL	CSCC(=O)N[C@H]1Cc2ccc(SC3CNC3)c(C(=O)O)c2OB1O
5 µg/mL	CSCC(=O)N[C@H]1Cc2ccc(Sc3nncn3C)c(C(=O)O)c2OB1O
0.6 µg/mL	CSCC(=O)N[C@H]1Cc2ccc(F)c(C(=O)O)c2OB1O
10 µg/mL	O=C(O)c1cccc2c1OB(O)[C@@H](Sc1nncs1)C2

Tested on: Enterobacter cloacae
Assay: Inhibition of Enterobacter cloacae ECL1002 AmpC assessed as minimum concentration of compound needed to reduce the MIC of aztreonam to 4 ug/ml

MEC	SMILES
1.25 µg/mL	CSCC(=O)N[C@H]1Cc2ccc(SC)c(C(=O)O)c2OB1O
5 µg/mL	CSCC(=O)N[C@H]1Cc2ccc(OCCO)c(C(=O)O)c2OB1O
10 µg/mL	CSCC(=O)N[C@H]1Cc2ccc(SC3CNC3)c(C(=O)O)c2OB1O
5 µg/mL	CSCC(=O)N[C@H]1Cc2ccc(Sc3nncn3C)c(C(=O)O)c2OB1O
2.5 µg/mL	CSCC(=O)N[C@H]1Cc2ccc(F)c(C(=O)O)c2OB1O
20 µg/mL	O=C(O)c1cccc2c1OB(O)[C@@H](Sc1nncs1)C2

Tested on: Klebsiella pneumoniae
Assay: Inhibition of Klebsiella pneumoniae KP1081 NDM-1 assessed as minimum concentration of compound required to reduce the MIC of biapenem to 1 ug/ml

MEC	SMILES
> 20 µg/mL	CSCC(=O)N[C@H]1Cc2ccc(F)c(C(=O)O)c2OB1O
0.6 µg/mL	O=C(O)c1cccc2c1OB(O)[C@@H](Sc1nncs1)C2

Tested on: Klebsiella pneumoniae
Assay: Inhibition of Klebsiella pneumoniae KP1054 VIM-1 assessed as minimum concentration of compound required to reduce the MIC of biapenem to 1 ug/ml

MEC	SMILES
> 20 µg/mL	CSCC(=O)N[C@H]1Cc2ccc(F)c(C(=O)O)c2OB1O
2.5 µg/mL	O=C(O)c1cccc2c1OB(O)[C@@H](Sc1nncs1)C2

Tested on: Pseudomonas aeruginosa
Assay: Inhibition of Pseudomonas aeruginosa PAM 2035 AmpC assessed as minimum concentration of compound needed to reduce the MIC of aztreonam to 4 ug/ml

MEC	SMILES
20 µg/mL	CSCC(=O)N[C@H]1Cc2ccc(SC)c(C(=O)O)c2OB1O
> 20 µg/mL	CSCC(=O)N[C@H]1Cc2ccc(OCCO)c(C(=O)O)c2OB1O
20 µg/mL	CSCC(=O)N[C@H]1Cc2ccc(SC3CNC3)c(C(=O)O)c2OB1O
> 20 µg/mL	CSCC(=O)N[C@H]1Cc2ccc(Sc3nncn3C)c(C(=O)O)c2OB1O
10 µg/mL	CSCC(=O)N[C@H]1Cc2ccc(F)c(C(=O)O)c2OB1O

Tested on: Klebsiella pneumoniae
Assay: Inhibition of Klebsiella pneumoniae KP1160 IMP-26 assessed as minimum concentration of compound needed to reduce the MIC of meropenem to 1 ug/ml

MEC	SMILES
> 20 µg/mL	CSCC(=O)N[C@H]1Cc2ccc(F)c(C(=O)O)c2OB1O
40 µg/mL	O=C(O)c1cccc2c1OB(O)[C@@H](Sc1nncs1)C2

Tested on: Escherichia coli
Assay: Inhibition of Escherichia coli ECM6625 SHV-5 assessed as minimum concentration of compound needed to reduce the MIC of aztreonam to 4 ug/ml

MEC	SMILES
0.15 µg/mL	CSCC(=O)N[C@H]1Cc2ccc(F)c(C(=O)O)c2OB1O

Tested on: Escherichia coli
Assay: Inhibition of Escherichia coli ECM6619 TEM-10 assessed as minimum concentration of compound needed to reduce the MIC of aztreonam to 4 ug/ml

MEC	SMILES
1.25 µg/mL	CSCC(=O)N[C@H]1Cc2ccc(F)c(C(=O)O)c2OB1O

Tested on: Acinetobacter baumannii
Assay: Inhibition of Acinetobacter baumannii AB1053 OXA-72 assessed as minimum concentration of compound needed to reduce the MIC of meropenem to 8 ug/ml

MEC	SMILES
> 20 µg/mL	CSCC(=O)N[C@H]1Cc2ccc(F)c(C(=O)O)c2OB1O

Target: Beta-lactamase OXA-23 (Acinetobacter baumannii) (UniProt Q9L4P2)
Sequence (Q9L4P2 whole entry): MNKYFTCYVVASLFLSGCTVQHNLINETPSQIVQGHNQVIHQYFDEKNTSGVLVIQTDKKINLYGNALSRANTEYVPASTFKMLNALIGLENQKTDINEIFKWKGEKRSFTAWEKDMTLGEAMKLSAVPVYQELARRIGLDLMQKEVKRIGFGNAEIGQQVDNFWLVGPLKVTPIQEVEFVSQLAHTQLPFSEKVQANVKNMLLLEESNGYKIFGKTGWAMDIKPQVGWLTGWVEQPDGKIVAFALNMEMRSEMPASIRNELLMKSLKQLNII
Assay: Inhibition of Acinetobacter baumannii AB1054 OXA-23 assessed as minimum concentration of compound needed to reduce the MIC of meropenem to 8 ug/ml

MEC	SMILES
> 20 µg/mL	CSCC(=O)N[C@H]1Cc2ccc(F)c(C(=O)O)c2OB1O

Tested on: Escherichia coli
Assay: Inhibition of Escherichia coli EC308 SHV-5 assessed as minimum concentration of compound needed to reduce the MIC of aztreonam to 4 ug/ml

MEC	SMILES
0.04 µg/mL	CSCC(=O)N[C@H]1Cc2ccc(SC)c(C(=O)O)c2OB1O
< 0.3 µg/mL	CSCC(=O)N[C@H]1Cc2ccc(OCCO)c(C(=O)O)c2OB1O
0.6 µg/mL	CSCC(=O)N[C@H]1Cc2ccc(SC3CNC3)c(C(=O)O)c2OB1O
< 0.3 µg/mL	CSCC(=O)N[C@H]1Cc2ccc(Sc3nncn3C)c(C(=O)O)c2OB1O
< 0.3 µg/mL	CSCC(=O)N[C@H]1Cc2ccc(F)c(C(=O)O)c2OB1O

Tested on: Pseudomonas aeruginosa
Assay: Inhibition of Pseudomonas aeruginosa PAM 1032 KPC-2 assessed as minimum potentiating concentration of compound needed to reduce the MIC of biapenem by 64 fold

Activity	SMILES
20 µg/mL	CSCC(=O)N[C@H]1Cc2ccc(F)c(C(=O)O)c2OB1O

Tested on: Pseudomonas aeruginosa
Assay: Inhibition of Pseudomonas aeruginosa PAM 1154 KPC-2 assessed as assessed as minimum potentiating concentration of compound needed to reduce the MIC of biapenem by 64 fold

Activity	SMILES
5 µg/mL	CSCC(=O)N[C@H]1Cc2ccc(F)c(C(=O)O)c2OB1O

Target: Beta-lactamase (Klebsiella pneumoniae) (UniProt Q93LQ9)
Assay: Inhibition of Klebsiella pneumoniae KP1004 KPC-2 assessed as minimum concentration of compound needed to reduce the MIC of biapenem to 1 ug/ml

Activity	SMILES
0.08 µg/mL	Nc1nnc(SCC(=O)N[C@H]2Cc3cccc(C(=O)O)c3OB2O)s1
0.16 µg/mL	O=C(O)c1cccc2c1OB(O)[C@@H](Sc1nncs1)C2

Tested on: not listed separately
Assay: Ratio of inhibition of Pseudomonas aeruginosa PAM 1032 KPC-2 assessed as minimum potentiating concentration of compound needed to reduce the MIC of biapenem by 64 fold to inhibition of Pseudomonas aeruginosa PAM 1154 KPC-2 assessed as assessed as minimum potentiating concentration of compound needed to reduce the MIC of biapenem by 64 fold

Ratio	SMILES
4	CSCC(=O)N[C@H]1Cc2ccc(F)c(C(=O)O)c2OB1O

Tested on: Klebsiella pneumoniae
Assay: Inhibition of Klebsiella pneumoniae KP1086 OXA-48 assessed as minimum concentration of compound needed to reduce the MIC of biapenem to 1 ug/ml

Activity	SMILES
2.5 µg/mL	Nc1nnc(SCC(=O)N[C@H]2Cc3cccc(C(=O)O)c3OB2O)s1
5 µg/mL	O=C(O)c1cccc2c1OB(O)[C@@H](Sc1nncs1)C2

Tested on: Klebsiella pneumoniae
Assay: Inhibition of Klebsiella pneumoniae KP1081 NDM-1 assessed as minimum concentration of compound needed to reduce the MIC of biapenem to 1 ug/ml

Activity	SMILES
> 20 µg/mL	Nc1nnc(SCC(=O)N[C@H]2Cc3cccc(C(=O)O)c3OB2O)s1
0.6 µg/mL	O=C(O)c1cccc2c1OB(O)[C@@H](Sc1nncs1)C2
